Test results: patent US20060194971A1, “Anethole dithiolethione and other dithiolethiones for the treatment of conditions associated with dysfunction of monoamine neruotransmission” (priority 2005, published 2006)
Like-named read-outs stand apart in the source and are kept apart here. Each block holds one compound with its values, some of them ahead of it.

Columns and labels:
[1] = target: T1, monoamine oxidase A (MAO-A) (Rattus norvegicus, UniProt P21396); details: upon selective and complete blockade of MAO-B activity with deprenyl
T1 sequence (P21396 1-526): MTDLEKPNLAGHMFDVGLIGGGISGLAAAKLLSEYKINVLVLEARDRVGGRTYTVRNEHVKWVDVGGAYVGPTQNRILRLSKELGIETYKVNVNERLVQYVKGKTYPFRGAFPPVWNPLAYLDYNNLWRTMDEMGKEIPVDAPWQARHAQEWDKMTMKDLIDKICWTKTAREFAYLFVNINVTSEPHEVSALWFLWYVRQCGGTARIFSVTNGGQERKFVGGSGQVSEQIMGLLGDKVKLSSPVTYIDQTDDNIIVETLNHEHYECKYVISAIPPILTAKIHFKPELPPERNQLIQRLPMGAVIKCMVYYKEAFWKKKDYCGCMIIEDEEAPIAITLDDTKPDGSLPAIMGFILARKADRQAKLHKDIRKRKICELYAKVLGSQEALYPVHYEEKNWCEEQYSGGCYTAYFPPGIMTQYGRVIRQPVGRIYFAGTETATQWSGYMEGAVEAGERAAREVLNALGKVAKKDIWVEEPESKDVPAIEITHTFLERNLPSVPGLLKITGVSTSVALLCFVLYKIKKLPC
Procedure: (§1) Neonatal rat striatal astroglial cells were used as a source for both MAO-A and MAO-B activity (Carlo et al., Brain Res 711, 175-183, 1996). Astroglial cells were cultured as described (Langeveld et al., Neurosci. Lett. 192, 13-16, 1995). Following one week in culture in 5% CO2/95% air and at 37° C., cells were trypsinized and sonicated in ice cold 25 mM Tris-HCl buffer (pH 7.4) containing 1 mM EDTA. Thereafter, the obtained lysates were centrifuged for 5 min at 1 0,000 g and 4° C., and aliquots of the supernatant fractions were taken for determination of MAO activity using the Amplex Red MAO assay kit (Molecular Probes, Leiden, The Netherlands), which is based on the method described by Zhou and Panchuk-Voloshina (Anal. Biochem. 253, 169-174, 1997). Measurements were performed according to the manufacturers instructions. Briefly, prior to addition of the substrate, the samples were incubated for 30 min in a 96 well plate with drugs or solvent (total volume of 50 μl). Thereafter, 50 μl Amplex Red reagent was added containing 2 U/ml horseradisch peroxidase (HRP), p-tyramine HCl (2 mM, substrate for both MAO A and MAO B (Youdim and Finberg, Biochem. Pharmacol., 41, 155-162, 1991) and Amplex red (10 mM). Under these circumstances, via MAO-catalyzed oxidation of tyramine in a HRP-coupled reaction, Amplex red is converted to fluorescent resorufin. To measure MAO activity, the time-dependent increase in resorufin formation was determined at 2 min time intervals for 30 min at room temperature in a fluorescence microplate reader (BMG Labtechnologies GmbH, Germany), using excitation at 544 nm and emission at 595 nm. […] For calculation of results, the data were corrected for background readings (i.e., in the absence of the MAO substrate tyramine), and expressed as the increase in arbitrary fluorescence units/min. Protein content was determined according to the method of Bradford et al., (Anal. Biochem. 72, 248-254, 1976), using BSA as a standard. Statistical comparisons between groups were made using a one-way analysis of variance (ANOVA) followed by a Newman-Keuls post-hoc test. P values <0.01 were considered significant.
(§2) MAO activity and effects of the drugs thereon were determined as detailed above.
(§3) Data are expressed as percentages of respective controls, and are averages of two till five independent experiments performed in triplicate.

[2] = system: total monoamine oxidase (Σ MAO); details: for Σ MAO activity (% inhibition): solvent 0.03% DMSO only, neonatal rat striatal astroglial cell extracts
Procedure: as §1, §2, §3

[3] = target: T2, monoamine oxidase-B (MAO-B) (Rattus norvegicus, UniProt P19643); test: MAO-B activity in astroglial cell extracts in the presence of clorgyline, Amplex Red MAO assay; format: biochemical
T2 construct: in cellular extracts obtained from cultures of neonatal rat striatal astroglial cells; endogenous in cells; host or cells: cultured neonatal rat striatal astroglial cells (supernatant of sonicated lysate)
T2 sequence (P19643 1-520): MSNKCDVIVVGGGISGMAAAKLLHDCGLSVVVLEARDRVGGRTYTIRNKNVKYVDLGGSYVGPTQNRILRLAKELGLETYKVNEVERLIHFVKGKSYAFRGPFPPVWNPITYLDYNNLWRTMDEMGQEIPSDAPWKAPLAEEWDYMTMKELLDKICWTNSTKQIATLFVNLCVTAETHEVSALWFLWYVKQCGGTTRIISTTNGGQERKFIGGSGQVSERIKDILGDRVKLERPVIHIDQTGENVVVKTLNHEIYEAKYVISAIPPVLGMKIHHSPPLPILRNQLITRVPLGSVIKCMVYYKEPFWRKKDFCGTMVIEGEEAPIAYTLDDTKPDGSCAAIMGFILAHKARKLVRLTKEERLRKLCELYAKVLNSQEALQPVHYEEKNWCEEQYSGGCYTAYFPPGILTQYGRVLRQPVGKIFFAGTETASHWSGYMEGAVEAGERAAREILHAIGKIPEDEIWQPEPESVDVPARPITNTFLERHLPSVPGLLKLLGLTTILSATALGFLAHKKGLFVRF
Procedure: as §1, §2, §3

[4] = system: MAO-B; test: MAO-B inhibitory activity measured at CEREP (protocol of Salach); format: biochemical
Procedure: MAO-B inhibitory activity of the compounds A1-D6 were measured at CEREP (Paris, France), according to the protocol described by J. L. Salach, Arch. Biochem. Biophys., 192, 128,1979.
MAO-B inhibitory activity of the compounds A1-D6 AS measured at CEREP (Paris, France), according to the protocol described by J. L. Salach, Arch. Biochem. Biophys., 192, 128, 1979.

[5] = read-out: MAO-B activity (% inhibition)

SMILES: COc1ccc(-c2cc(=S)ss2)cc1 [ADT, 5-(p-methoxyphenyl)-3H-1,2-dithiole-3-thione]
effect on MAO-A activity [1]: no statistically significant effect
Σ MAO activity (% inhibition) ([2]; 0.1 μM): 14%
Σ MAO activity (% inhibition) ([2]; 0.3 μM): 35%
Σ MAO activity (% inhibition) ([2]; 1 μM): 60%
Σ MAO activity (% inhibition) ([2]; 3 μM): 70%
Σ MAO activity (% inhibition) ([2]; 10 μM): 81%
Σ MAO activity (% inhibition) ([2]; 30 μM): 85%
maximal effect on total MAO activity (inhibition) ([2]; at a concentration of 30 μM): ~80%
IC50 ([2]; read-out: apparent IC50, inhibition of total astroglial MAO activity, substrate tyramine, astroglial cell extracts): ~0.5 µM
concentration-effect relationship for MAO-B compared to inhibition of total MAO activity ([3]; following selective and complete blockade of MAO-A activity by clorgyline): identical concentration-effect relationships
inhibition at 0.03 µM [3, 5]: 0%
inhibition at 0.1 µM [3, 5]: 15%
inhibition at 0.3 µM [3, 5]: 40%
inhibition at 1 µM [3, 5]: 73%
inhibition at 3 µM [3, 5]: 89%
inhibition at 10 µM [3, 5]: 96%
inhibition at 30 µM [3, 5]: 100%

melting point: 121 °C
SMILES: CCCCCCOc1ccc(-c2cssc2=S)cc1 [Compound A1]
MAO-B %-inhibition at 10^−5 M [4]: 100%

SMILES: S=c1ssc(N2CCN(c3cccc4c3OCCO4)CC2)c1-c1ccccc1 [Compound B1]
MAO-B %-inhibition at 10^−5 M [4]: 65%

SMILES: Cc1ccc(-c2c(N3CCN(c4ccccc4)CC3)ssc2=S)cc1 [Compound B3]
MAO-B %-inhibition at 10^−5 M [4]: 54%

SMILES: CCN(CC)c1ccc(C=Cc2cc(=S)ss2)cc1 [Compound C1]
MAO-B %-inhibition at 10^−5 M [4]: 52%

SMILES: S=c1cc(C=Cc2ccc3ccccc3n2)ss1 [Compound C2]
MAO-B %-inhibition at 10^−5 M [4]: 56%

SMILES: S=c1ccss1 [Compound D3T, 3H-1,2-dithiole-3-thione]
maximally effective concentration, blockade of MAO-B activity ([3]; in the presence of clorgyline): 300 µM
inhibition at 1 µM [3, 5]: 2%
inhibition at 3 µM [3, 5]: 6%
inhibition at 10 µM [3, 5]: 24%
inhibition at 30 µM [3, 5]: 59%
inhibition at 100 µM [3, 5]: 82%
inhibition at 300 µM [3, 5]: 92%
inhibition at 1000 µM [3, 5]: 91%
IC50 ([3]; read-out: apparent IC50, blockade of MAO-B activity): ~20 µM
